These are literature values, as cited in patent US8653059B2, “Heterocyclic compounds as dipeptidyl peptidase-IV inhibitors for the treatment or prevention of diabetes” (Merck Sharp & Dohme Corp., priority 2007, dated 2014).

The subject of series [1] is cardiac allograft. The settings on record: rats; Transplantation 63: 1495-1500 (1997).
Series [2] deals with hematopoiesis. The settings on record: mouse model of cyclophosphamide-induced neutropenia; WO 99/56753.
In series [3] the target is T1, DPP-4 (Homo sapiens, UniProt P27487).
T1 construct: GRF is rapidly degraded in plasma to GRF[3-44]; host or cells: plasma
T1 sequence (P27487 whole entry, species assumed): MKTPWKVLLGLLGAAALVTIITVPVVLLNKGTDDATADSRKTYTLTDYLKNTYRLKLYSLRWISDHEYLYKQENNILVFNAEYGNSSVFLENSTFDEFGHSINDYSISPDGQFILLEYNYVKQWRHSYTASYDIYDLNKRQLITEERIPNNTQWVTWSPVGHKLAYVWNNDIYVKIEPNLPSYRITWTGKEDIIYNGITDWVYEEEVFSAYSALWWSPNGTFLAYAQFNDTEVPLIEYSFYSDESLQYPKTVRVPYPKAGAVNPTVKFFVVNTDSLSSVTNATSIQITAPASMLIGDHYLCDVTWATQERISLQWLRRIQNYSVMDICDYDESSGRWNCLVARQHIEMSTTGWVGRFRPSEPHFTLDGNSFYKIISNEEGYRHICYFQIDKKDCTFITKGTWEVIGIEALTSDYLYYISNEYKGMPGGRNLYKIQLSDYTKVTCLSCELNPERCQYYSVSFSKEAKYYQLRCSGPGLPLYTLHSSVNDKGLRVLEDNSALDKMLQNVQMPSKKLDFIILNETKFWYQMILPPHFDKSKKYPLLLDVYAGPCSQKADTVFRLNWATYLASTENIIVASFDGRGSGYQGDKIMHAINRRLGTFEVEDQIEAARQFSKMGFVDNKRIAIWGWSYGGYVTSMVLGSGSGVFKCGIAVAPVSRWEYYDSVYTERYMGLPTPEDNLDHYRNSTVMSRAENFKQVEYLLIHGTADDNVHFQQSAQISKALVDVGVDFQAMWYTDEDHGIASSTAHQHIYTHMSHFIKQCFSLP

Take `CC(C)N1CCC(c2ccccc2)(c2ccccc2)CC1` [Prodipine, Pro-Pro-diphenyl-phosphonate]: the cardiac allograft survival result in series [1] is recorded as “double cardiac allograft survival in rats from day 7 to day 14”.

On to `CC(C)[C@H](N)C(=O)N1CCC[C@H]1B(O)O` [Val-Boro-Pro], for which the hematopoiesis result in series [2] was “stimulated hematopoiesis”. Take diprotin A: in series [3], the “degradation of GRF in plasma to GRF[3-44]” value is on record as “prevented”.
